Source: publication PMC9297976 (Journal of Applied Toxicology, 2021)

How the values were obtained:
[1] = biological target: T1, medaka ARβ (mArβ) (Oryzias latipes, UniProt D1MV73); assay: Medaka ARβ reporter gene assay, antagonist assay; assay type: cell-based, Japanese medaka (Oryzias latipes)
T1 sequence (D1MV73 1-744): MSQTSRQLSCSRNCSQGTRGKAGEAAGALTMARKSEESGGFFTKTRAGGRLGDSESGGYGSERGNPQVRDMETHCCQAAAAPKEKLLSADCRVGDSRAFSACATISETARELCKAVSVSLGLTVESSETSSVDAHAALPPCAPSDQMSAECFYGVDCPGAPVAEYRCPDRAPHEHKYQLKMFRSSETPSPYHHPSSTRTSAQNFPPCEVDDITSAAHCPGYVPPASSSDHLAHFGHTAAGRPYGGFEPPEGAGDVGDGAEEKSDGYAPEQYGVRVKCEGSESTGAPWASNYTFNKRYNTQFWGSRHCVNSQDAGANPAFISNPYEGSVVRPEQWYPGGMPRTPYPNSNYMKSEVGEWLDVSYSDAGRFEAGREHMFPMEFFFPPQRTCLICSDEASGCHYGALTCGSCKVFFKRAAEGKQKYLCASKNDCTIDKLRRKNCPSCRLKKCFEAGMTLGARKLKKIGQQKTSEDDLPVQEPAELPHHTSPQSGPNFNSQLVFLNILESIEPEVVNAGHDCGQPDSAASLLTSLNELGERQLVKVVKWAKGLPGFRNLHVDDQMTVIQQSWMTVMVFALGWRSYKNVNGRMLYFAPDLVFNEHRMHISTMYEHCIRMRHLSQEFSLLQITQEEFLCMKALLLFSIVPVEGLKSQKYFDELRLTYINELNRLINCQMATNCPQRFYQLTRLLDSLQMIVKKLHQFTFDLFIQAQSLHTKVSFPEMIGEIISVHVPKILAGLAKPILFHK

[2] = biological target: T2, medaka Esr1 (mEsr1) (Oryzias latipes, UniProt P50241); assay: cell-based; design: species or system Japanese medaka (Oryzias latipes)
T2 sequence (P50241 1-620): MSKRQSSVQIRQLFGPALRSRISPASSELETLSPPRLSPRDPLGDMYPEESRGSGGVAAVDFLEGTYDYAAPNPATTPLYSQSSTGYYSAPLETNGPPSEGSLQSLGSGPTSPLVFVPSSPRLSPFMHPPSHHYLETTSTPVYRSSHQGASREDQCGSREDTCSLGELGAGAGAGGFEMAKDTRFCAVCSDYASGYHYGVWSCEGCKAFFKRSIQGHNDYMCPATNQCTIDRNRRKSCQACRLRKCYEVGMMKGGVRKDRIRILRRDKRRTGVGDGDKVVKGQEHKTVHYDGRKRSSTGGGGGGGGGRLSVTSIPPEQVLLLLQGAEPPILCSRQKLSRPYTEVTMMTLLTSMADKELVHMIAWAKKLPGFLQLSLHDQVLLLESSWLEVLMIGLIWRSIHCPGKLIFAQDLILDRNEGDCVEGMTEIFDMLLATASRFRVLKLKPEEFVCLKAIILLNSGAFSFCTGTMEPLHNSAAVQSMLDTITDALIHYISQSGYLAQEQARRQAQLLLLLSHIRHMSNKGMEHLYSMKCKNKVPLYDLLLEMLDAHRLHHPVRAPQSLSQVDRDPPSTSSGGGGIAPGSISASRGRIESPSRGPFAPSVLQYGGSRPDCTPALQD

[3] = biological target: T2, medaka Esr1 (mEsr1); assay: Medaka Esr1 reporter gene assay, antagonist assay; assay type: cell-based, Japanese medaka (Oryzias latipes); conditions: E2 spiked at 1.0 nM (B); MAC = 1.0 × 10^−5 M
[4] = biological target: T1, medaka ARβ (mArβ); assay: Medaka ARβ reporter gene assay, agonist assay; assay type: cell-based, Japanese medaka (Oryzias latipes); conditions: MAC = 1.0 × 10^−5 M
[5] = test system: Japanese medaka (Oryzias latipes); assay: Fish Short‐Term Reproduction Assay; assay type: in vivo; conditions: for GSI Female / GSI Male / HSI Female / HSI Male / Length Female / Length Male / Weight Female / Weight Male: completion of exposure
[6] = 100 μg/L measured, 21 d, sig. ↓ vs control
[7] = measured concentration 5.69 μg/L
[8] = measured concentration 28.8 μg/L
[9] = measured concentration 100 μg/L

For `CCC(CC)Nc1c([N+](=O)[O-])cc(C)c(C)c1[N+](=O)[O-]` [PDM, Pendimethalin], the IC50 ([1]; Antagonistic activity IC50, 11‐KT spiked at 50 nM (D)) was 3.1 µM, the “In vitro positive: aAr” value ([1]; mode of action in which IC50 or IC30 was obtained in RGA) was “aAr” and the “Antagonistic activity on mArβ (in words)” value ([1]; transcriptional activity on mArβ by 11KT) was “inhibitory potency”. For the same molecule, the EC50 [2] was 3.3 µM, the “In vitro positive: Esr” value ([2]; mode of action in which EC50 or PC10 was obtained in RGA) was “Esr” and the Antagonistic activity [3] was “NE (MAC = 1.0 × 10^−5 M)^(B)”. For the same molecule, the Agonistic activity [4] was “NE (MAC = 1.0 × 10^−5 M)”, the Fertility rate ([5]; 5.69 μg/L measured, 21 d) was 93 ± 0.9% and the “Hepatic VTG, female” value ([5]; 5.69 μg/L measured, 21 d) was 649 ± 200 ng/mg‐liver. The “Hepatic VTG, male” value ([5]; 5.69 μg/L measured, 21 d) was 0.5 ± 0.0 ng/mg‐liver, the Mortality ([5]; 5.69 μg/L measured, 21 d) was 0.0% and the “Mortality, number of dead fish” value ([5]; 5.69 μg/L measured, 21 d) was 0. For the same molecule, the “Number of fertilized eggs (per female per day)” value ([5]; 5.69 μg/L measured, 21 d) was 19 ± 3.1, the “Number of total eggs (per female per day)” value ([5]; 5.69 μg/L measured, 21 d) was 21 ± 3.4 and the “SSC female (joint plates with papillary processes)” value (from here on “SSC female”) ([5]; 5.69 μg/L measured, 21 d) was 0 ± 0. The “SSC male (joint plates with papillary processes)” value (shortened to “SSC male”) ([5]; 5.69 μg/L measured, 21 d) was 85 ± 11, the Fertility rate ([5]; 28.8 μg/L measured, 21 d) was 88 ± 4.9% and the “Hepatic VTG, female” value ([5]; 28.8 μg/L measured, 21 d) was 933 ± 692 ng/mg‐liver. For the same molecule, the “Hepatic VTG, male” value ([5]; 28.8 μg/L measured, 21 d) was 5.7 ± 6.6 ng/mg‐liver, the Mortality ([5]; 28.8 μg/L measured, 21 d) was 4.2% and the “Mortality, number of dead fish” value ([5]; 28.8 μg/L measured, 21 d) was 1. For the same molecule, the “Number of fertilized eggs (per female per day)” value ([5]; 28.8 μg/L measured, 21 d) was 18 ± 3.6, the “Number of total eggs (per female per day)” value ([5]; 28.8 μg/L measured, 21 d) was 20 ± 3.9 and the “SSC female” value ([5]; 28.8 μg/L measured, 21 d) was 0 ± 0. The “SSC male” value ([5]; 28.8 μg/L measured, 21 d) was 80 ± 8.2, the “Hepatic VTG, female” value ([5]; 100 μg/L measured, 21 d) was 813 ± 157 ng/mg‐liver and the Mortality ([5]; 100 μg/L measured, 21 d) was 8.3%. For the same molecule, the “Mortality, number of dead fish” value ([5]; 100 μg/L measured, 21 d) was 2, the “Number of total eggs (per female per day)” value ([5]; 100 μg/L measured, 21 d) was 19 ± 2.1 and the “SSC female” value ([5]; 100 μg/L measured, 21 d) was 0 ± 0. The “SSC male” value ([5]; 100 μg/L measured, 21 d) was 80 ± 13, the “Hepatic VTG, male” value ([5]; 100 μg/L measured, 21 d, sig. ↑ vs control) was 774 ± 290 ng/mg‐liver and the Fertility rate [5, 6] was 62 ± 11%. For the same molecule, the “Number of fertilized eggs (per female per day)” value [5, 6] was 12 ± 2.3, the “LOEC, elevated hepatic VTG in males” value ([5]; 21 d) was 100 µg/L and the LOECREPRO ([5]; LOEC on reproduction (fecundity and/or fertility)) was 100 µg/L. For the same molecule, the minimal effective concentration ([5]; Oryzias latipes, 504 h, read-out: LOECmVTG) was 0.1 µg/mL, the “Fertility rate (in words)” value ([5]; at concentrations that did not affect number of total eggs) was “significant decrease” and the “LOECREPRO (reduction in fecundity or fertility)” value ([5]; concentrations without overt toxicity) was 100 µg/L. For the same molecule, the LOECTOX ([5]; lowest observed effect concentration on mortality) was “ND (>100) μg/L”, the “GSI Female” value [5, 7] was 10.7 ± 0.8% and the “GSI Male” value [5, 7] was 0.64 ± 0.11%. The “HSI Female” value [5, 7] was 4.5 ± 0.70%, the “HSI Male” value [5, 7] was 2.7 ± 0.16% and the “Length Female” value [5, 7] was 32.4 ± 0.7 mm. The “Length Male” value [5, 7] was 31.9 ± 0.7 mm, the “Weight Female” value [5, 7] was 427 ± 25 mg and the “Weight Male” value [5, 7] was 366 ± 25 mg. For the same molecule, the “GSI Female” value [5, 8] was 11.3 ± 0.8%, the “GSI Male” value [5, 8] was 0.55 ± 0.11% and the “HSI Male” value [5, 8] was 2.7 ± 0.28%. For the same molecule, the “Length Female” value [5, 8] was 33.1 ± 0.9 mm, the “Length Male” value [5, 8] was 32.2 ± 0.2 mm and the “Weight Female” value [5, 8] was 455 ± 46 mg. For the same molecule, the “Weight Male” value [5, 8] was 393 ± 20 mg, the “GSI Female” value [5, 9] was 9.7 ± 0.3% and the “GSI Male” value [5, 9] was 0.60 ± 0.20%. For the same molecule, the “HSI Female” value [5, 9] was 4.4 ± 1.04%, the “HSI Male” value [5, 9] was 2.9 ± 0.45% and the “Length Female” value [5, 9] was 31.4 ± 0.8 mm. The “Length Male” value [5, 9] was 31.9 ± 0.7 mm, the “Weight Female” value [5, 9] was 423 ± 30 mg and the “Weight Male” value [5, 9] was 389 ± 28 mg.
